Laboratory results as given in ChEMBL document CHEMBL5729353, “Imidazopyridazine and imidazopyridine compounds and uses thereof” (2022).

Target: T1, Activin receptor type-1 (Homo sapiens, UniProt Q04771)
T1 sequence (Q04771 whole entry): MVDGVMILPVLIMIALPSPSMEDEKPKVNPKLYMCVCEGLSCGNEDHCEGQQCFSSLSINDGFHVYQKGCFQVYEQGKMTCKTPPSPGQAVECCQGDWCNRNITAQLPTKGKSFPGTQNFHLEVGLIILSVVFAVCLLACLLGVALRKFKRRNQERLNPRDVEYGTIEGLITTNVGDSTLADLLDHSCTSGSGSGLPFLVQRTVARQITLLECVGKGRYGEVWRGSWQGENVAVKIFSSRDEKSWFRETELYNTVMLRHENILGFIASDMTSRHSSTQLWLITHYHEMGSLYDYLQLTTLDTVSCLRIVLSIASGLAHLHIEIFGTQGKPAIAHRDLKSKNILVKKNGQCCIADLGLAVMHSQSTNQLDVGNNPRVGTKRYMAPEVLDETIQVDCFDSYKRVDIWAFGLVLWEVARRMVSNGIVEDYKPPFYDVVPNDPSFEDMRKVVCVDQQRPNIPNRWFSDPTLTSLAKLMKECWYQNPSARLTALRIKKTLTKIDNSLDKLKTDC
Test: The enzymatic assays were conducted in white 384-well polystyrene plates in a final volume of 8 μL. The inhibitors were serially diluted in DMSO and added to the plate wells prior to addition of the other reaction components. […] The final concentration of DMSO in the assay was 1% and the enzyme concentration was 0.5 nM for ALK2. […] The reaction was incubated at 25° C. for 1 hr and read on a PHERAstar FS plate reader (BMG Labtech). IC50 determination was performed by fitting percent control activity versus the log of the inhibitor concentration using the IDBS XLFit and GraphPad Prism 5.0 software.

Cc1nn2c(-c3ccnc4cc(-c5ccncc5)ccc34)cnc2cc1-c1cnn(CC2CCNCC2)c1
IC50: < 1 nM
